System: differentiated human keratinocytes
Assay: in vitro screening of an active agent on desquamation (release of corneocytes, cellular detachment index by flow cytometry)
Format: cell-based
Conditions: for % of activity relative to the control (cellular detachment index, difference between T60 and T0): compounds at 5 × 10^−5M, 60 minutes after addition, control = identical culture in the absence of compound
Experimental: This test of in vitro screening of an active agent on desquamation was carried out on differentiated human keratinocytes. The principle of the test was based on the fact that desquamation induces the release of corneocytes. The desquamating power of the product tested will be proportionately greater the larger the number of corneocytes released.
The test procedure was as follows: starting with human skin biopsies, the keratinocytes obtained by separation of the epidermis were dissociated by enzymatic action with trypsin and were cultured at a concentration of 2×10^5 cells/ml. Growth and differentiation of the keratinocytes were obtained by culturing for 10 to 20 days in a specific medium. Next, after removing the culture medium, the activity of the test product was evaluated. To do this, two samples were taken at T0 and T60, i.e., just before adding the product and 60 minutes after this addition. The samples thus taken were analyzed with a flow cytometer in order to count the corneocyte population. The flow cytometer made it possible to distinguish the corneocyte and keratinocyte populations by treatment with acridine orange, which is specific for cellular DNA.
The cellular detachment index was determined by the difference between T60 and T0.
The test was carried out with cinnamic acid at a concentration of 5×10^−5M.
The results are given as a % of activity relative to the control consisting of an identical culture in the absence of compound.

Structure (SMILES) | activity on the cellular detachment (cinnamic acid at 5×10^−5M) | % of activity relative to the control (cellular detachment index, difference between T60 and T0)
O=C(O)C=Cc1ccccc1 [Cinnamic acid] | high | 59.2%
CCCCCCCC(=O)c1ccc(O)c(C(=O)O)c1 [Reference, 2-hydroxy-5-octanoylbenzoic acid, reference compound] |  | 96.6%
